{"source": "patent US10046046B2", "about": "“Amino sphingoglycolipid analogues” (Victoria Link Limited, priority 2014, dated 2018)", "key": {"[1]": {"test_system": "syngeneic splenocytes loaded ex vivo with SIINFEKL", "test": "Peptide-specific T cell-mediated cytotoxicity in vivo (VITAL assay)", "parameters": "species or system mice", "details": "0.571 nmol intravenously, targets injected 7 days after vaccination, 5 animals per group, FIG. 4", "procedure": "The compounds are injected to give the equivalent molar dose of SIINFEKL (SEQ ID NO: 262) peptide, in each case of 0.571 nmol. Flow cytometry is used to assess the killing of target cells comprised of syngeneic splenocytes loaded ex vivo with 5 μM SIINFEKL (SEQ ID NO: 262) injected intravenously 7 days after vaccination. To discriminate the targets from host tissue, the injected cells are labelled with the fluorescent dye carboxyfluorescein succinimidyl ester (CFSE). A cohort syngeneic splenocytes (without peptide) labelled with the fluorescent dye cell tracker orange are also injected to serve as controls. Killing is defined as the percentage of peptide-loaded targets killed relative to control cells. Each treatment group contained 5 animals. Control animals are injected with the diluent phosphate-buffered saline (PBS). […] Mean percentage of killing per group±SEM are shown. ***p<0.001\nThe cytotoxic capacity of induced CD8^+ T cell responses is measured by VITAL assay (Hermans, Silk et al. 2004). […] Specific lysis of the peptide-loaded targets is monitored by flow cytometry of blood or spleen samples 24 h later. Mean percent survival of peptide-pulsed (CFSE+) targets is calculated relative to that of the control population (CTO+), and cytotoxic activity is expressed as percent specific lysis (100−mean percent survival of peptide-pulsed targets)."}, "[2]": {"test_system": "B16.OVA melanoma cells", "test": "Anti-tumour activity against subcutaneous B16.OVA tumours", "type": "in vivo, C57BL/6 mice", "details": "0.571 nmol intravenously five days after tumour challenge, n=5, FIG. 5", "procedure": "Progression of subcutaneous B16.OVA tumours is monitored in animals treated five days after tumour challenge with intravenous CI-017 or CN159 peptide and α-GalCer or with PBS. The mean tumour sizes per group (n=5)±SEM are shown.\nGroups of C57BL/6 mice (n=5) receive a subcutaneous injection into the flank of 1×10^5 B16.OVA melanoma cells, which express a cDNA encoding the chicken ovalbumin (OVA) sequence. The different groups are treated five days later by intravenous injection of one of the following; CI-017 (0.571 nmol), peptide CN159 (0.571 nmol) mixed with α-GalCer (0.571 nmol), or PBS. Mice are monitored for tumour growth every 3-4 days, and tumour size for each group calculated as the mean of the products of bisecting diameters (±SEM). Measurements are terminated for each group when the first animal develops a tumour exceeding 200 mm^2."}, "[3]": {"test_system": "SIINFEKL-specific T cells", "test": "Peptide-specific T cell proliferation in vivo (OT-1 transfer)", "parameters": "species or system C57BL/6 mice", "details": "intravenous vaccination one day after transfer of 10,000 OT-1 cells, equivalent molar dose of SIINFEKL, blood after seven days, FIG. 2", "procedure": "The compounds are injected to give the equivalent molar dose of SIINFEKL (SEQ ID NO: 262) peptide in each case. To increase sensitivity of the assay, all mice are initially donated a cohort of 10,000 SIINFEKL-specific T cells from a transgenic mouse encoding a T cell receptor for this antigen (OT-1 mice) by intravenous injection of the cells one day before the vaccines are administered. […] It is therefore possible to enumerate SIINFEKL-specific T cells in blood by flow cytometry using antibodies for CD45.1 together with antibodies for the transgenic T cell receptor (Vα2). Control animals (naïve) are injected with the diluent phosphate-buffered saline (PBS). […] Each dot represents a different animal; mean per treatment group±SEM are presented. *P<0.05, *P<0.01, ***P<0.001\nPooled lymph node cell suspensions are prepared from animals of a cross between OT-1 mice, which express a transgenic T cell receptor (TCR) specific for the ovalbumin epitope SIINFEKL (SEQ ID NO: 262)-in the context of H-2K^b molecules, and B6.SJL-Ptprc^a Pepc^b/BoyJ mice, which are congenic with C57BL/6 mice for the CD45.1^+ marker. The samples are enriched for CD8^+ cells using antibody coated magnetic beads (Miltenyi), and then transferred into C57BL/6 mice (1×10^4 per mouse). Groups of recipient animals (n=5) are immunized with compounds of the invention one day later. […]"}, "[4]": {"test_system": "NKT cell activity (CD86 on B cells in the peripheral blood)", "test": "CD86 expression on peripheral blood B cells as readout of NKT cell activity", "type": "in vivo, C57BL/6 mice", "details": "0.23 nmol intravenously, blood collected 20 h later, n=3, FIG. 1", "procedure": "Groups of C57BL/6 mice (n=3) are injected intravenously with 0.23 nmol of the indicated glycolipid compounds and then the blood samples collected 20 h later for the analysis of CD86 expression on CD45 (B220)+B cells by antibody labelling and flow cytometry. Mean fluorescence index (MFI)±SEM are presented, *P<0.05, *P<0.01, ***P<0.001.\nEach compound of the invention is supplied as formulated product (see example 3), and diluted in phosphate-buffered saline (PBS) for injection (0.23 nmol/mouse) by intravenous injection into the lateral tail vein. In humans the expected therapeutic dose lies in the 50-4800 (μg/m^2) range (Giaccone, Punt et al. 2002). Note, 0.23 nmol in a mouse is a human equivalent dose of 30 μg/m^2 for α-GalCer.\nAll antibody labelling is performed on ice in FACS buffer (PBS supplemented with 1% FCS, 0.05% sodium azide, and 2 mM EDTA). Non-specific FcR-mediated antibody staining is blocked by incubation for 10 min with anti-CD16/32 Ab (24G2, prepared in-house from hybridoma supernatant). Flow cytometry is performed on a BD Biosciences FACSCalibur or BD LSRII SORP flow cytometer with data analysis using FlowJo software (Tree Star, Inc., OR, USA).\nAntibody staining and flow cytometry are used to examine the expression of the maturation markers CD86 on peripheral blood B cells following injection of compounds of the invention. […]"}, "[5]": {"test_system": "human NKT cells", "details": "Kawano, Cui et al. 1997; cited from earlier work"}, "[6]": {"test_system": "mouse NKT cells", "details": "Kawano, Cui et al. 1997; cited from earlier work"}, "[7]": {"details": "Ebensen, Link et al. 2007; cited from earlier work"}, "[8]": {"test_system": "CD11c+ dendritic cells", "test": "CD86 expression on splenic dendritic cells", "type": "in vivo, C57BL/6 mice", "details": "0.571 nmol intravenously, spleens removed 20 h later, n=3, FIG. 3", "procedure": "Groups of C57BL/6 mice (n=3) are injected intravenously with 0.571 nmol of the indicated compounds and then the spleens removed 20 h later for the analysis of CD86 expression on CD11c^+ dendritic cells by antibody labelling and flow cytometry. Mean fluorescence index (MFI)±SEM are presented. *P<0.05, *P<0.01, ***P<0.001\nAntibody staining and flow cytometry is used to examine the expression of maturation markers on dendritic cells in the spleen following injection of compounds of the invention (0.23 nmol). Splenocyte preparations are prepared by gentle teasing of splenic tissue through gauze in Iscove's Modified Dulbecco's Medium with 2 mM glutamine, 1% penicillin-streptomycin, 5×10^-5 M 2-mercapto-ethanol and 5% fetal bovine serum (all Invitrogen, Auckland, New Zealand), followed by lysis of red blood cells with RBC lysis buffer (Puregene, Gentra Systems, Minneapolis, Minn., USA). Antibody staining is performed in PBS 2% fetal bovine serum and 0.01% sodium azide. The anti-FcgRII monoclonal antibody 2.4G2 is used at […] to inhibit non-specific staining. Monoclonal antibodies (all BD Biosciences Pharmingen, San Jose, Calif., USA) are used to examine expression of the maturation markers CD40, CD80 and CD86 on CD11c+ dendritic cells."}}, "note": "Entries after “also recorded” stand apart in the source; their conditions may differ. Square brackets hold non-standard residues; d marks the D form. Peptide text beside a SMILES is read from it. * marks the point of attachment. ξ: configuration not given here. X1 = CCCCCCCCCCCCCCCCCCCCCCCCCC(=O)N[C@@H](CO[C@H]1OC(CNC(=O)OCOC(=O)CC/C(C)=N/OCC(=O)*)[C@H](O)[C@H](O)C1O)[C@H](O)[C@H](O)CCCCCCCCCCCCCC; ξF = NC(Cc1ccccc1)C(=O)O"}
{"molecule": "(2S,3S,4R)-1-(6-Deoxy-6-(4-β-(FFRKSIINFEKL)-3-oxopropyl)-1H-1,2,3-triazol-1-yl)hexanoyl)-(N-Val-Cit-4-aminobenzyloxycarbonylamino)-1-(α-D-galactopyranosyloxy))-2-hexacosanoylamino-3,4-octadecandiol [CI-017]", "values": [{"measurement": "SIINFEKL-specific cytotoxicity (percentage of peptide-loaded targets killed relative to control cells)", "setting": "[1]", "value": "greater SIINFEKL (SEQ ID NO: 262)-specific cytotoxicity"}, {"measurement": "Anti-tumour activity (mean tumour size)", "setting": "[2]", "value": "superior anti-tumour activity"}]}
{"molecule": "CCCCCCCCCCCCCCCCCCCCCCCCCC(=O)N[C@@H](CO[C@H]1OC(CNC(=O)OCOC(=O)CC/C(C)=N/OCC(=O)N[C@@H](Cc2ccccc2)C(=O)NC(Cc2ccccc2)C(=O)N[C@@H](CCCNC(=N)N)C(=O)N[C@@H](CCCCN)C(=O)N[C@@H](CO)C(=O)N[C@H](C(=O)N[C@H](C(=O)N[C@@H](CC(N)=O)C(=O)N[C@@H](Cc2ccccc2)C(=O)N[C@@H](CCC(=O)O)C(=O)N[C@@H](CCCCN)C(=O)N[C@@H](CC(C)C)C(=O)O)[C@@H](C)CC)[C@@H](C)CC)[C@H](O)[C@H](O)C1O)[C@H](O)[C@H](O)CCCCCCCCCCCCCC", "note": "(stereo partly drawn) [CN169, (2S,3S,4R)-1-(6-Deoxy-6-(4-((2-(FFRKSIINFEKL)-2-(oxo)ethoxyimino)pentanoyloxy)methoxycarbonylamino)-α-D-galactopyranosyloxy)-2-hexacosanoylamino-3,4-octadecandiol] (X1-F[ξF]RKSIINFEKL-OH)", "values": [{"measurement": "SIINFEKL-specific T cells (Vα2+ CD45.1+) in blood", "setting": "[3]", "value": "increased antigen-specific T cell response; also recorded: larger population of peptide-specific T cells; also recorded: larger population of SIINFEKL-specific T cells"}, {"measurement": "CD86 expression on CD45 (B220)+ B cells in peripheral blood (mean fluorescence index)", "setting": "[4]", "value": "potently activate B cells"}]}
{"molecule": "CCCCCCCCCCCCCCCCCCCCCCCCCC(=O)N[C@@H](CO[C@H]1O[C@H](CO)[C@H](O)[C@H](O)[C@H]1O)[C@H](O)[C@H](O)CCCCCCCCCCCCCC", "note": "[α-GalCer, α-Galactosylceramide]", "values": [{"measurement": "Activation of human NKT cells", "setting": "[5]", "value": "potently activates"}, {"measurement": "Activation of mouse NKT cells", "setting": "[6]", "value": "potently activates"}, {"measurement": "Solubility", "setting": "[7]", "value": "poor solubility"}]}
{"molecule": "CCCCCCCCCCCCCCCCCCCCCCCCCC(=O)N[C@@H](CO[C@H]1OC(CN)[C@H](O)C(O)C1O)[C@H](O)[C@H](O)CCCCCCCCCCCCCC", "note": "(some centres unmarked) [CN168]", "values": [{"measurement": "CD86 expression on CD11c+ dendritic cells in spleen (mean fluorescence index)", "setting": "[8]", "value": "potently activated dendritic cells"}]}
